Here are results for 4 molecules from patent US20250002866A1, “CELL CULTURE PLATFORMS, METHODS AND USES THEREOF” (ACADEMIA SINICA, priority 2021, published 2025).

The subject of data set [1] is CTC spheroid derived from blood samples of patient A. The data set can be described thus: Ex vivo drug assay on CTC spheroids of patient A. The data set is classed as cell-based, human. The settings on record: for diameter and morphology of CTC spheroid: after treatment for 3 days, versus untreated mock group. The procedure:
FIGS. 3A-F show the in vitro drug test results of CTC-derived spheroids and clinical-pathological results of the clinical patient. (A) The drug cytotoxicity assay results on the patient-derived CTC-originated spheroid of patient A. Six chemotherapeutic drugs were tested in this assay include oxaliplatin, docetaxel, doxorubicin, irinotecan, mitomycin-C, and 5-FU. (B and D) The image of the morphology of CTC-derived spheroids after drug panel treatment at day 3. Scale bar=20 μm. (C and E) The normalized viability of CTC-derived spheroids with indicated drug panel after 3 days of treatment. (F) The contrast-enhanced CT images before and after cisplatin/gemcitabine treatment of patient B.
In order to validate the ex vivo drug assay results, we tested single or combination therapeutic agents in CTC cultures derived from blood samples of patients. […] A designed ex vivo drug assay with both used and potential candidate drug panel including oxaliplatin, docetaxel, 5-FU, doxorubicin, mitomycin-c, and irinotecan was accomplished with time-dependent and dose-dependent manner (FIG. 3A). With regard to the cell morphology, the diameter of CTC spheroid derived from blood samples of patient A was about 30˜40 μm with an intact spheroid morphology in untreated mock group. […] The results highly match with the clinical treatment outcomes in the treatment resistance on the clinical used drugs. Therefore, doxorubicin was the related promising candidate drug among the un-used drugs (mitomycin-c and irinotecan) for next line treatment (FIG. 3B). Additional ex vivo drug test was also performed on patient B with urothelium cancer.
Spheroid formation on the culture platform of the invention. Collect the cell sample that would be used for cultivation on the culture platform of the invention in suspension medium. Add cell suspension medium into each well. The cells could be cultured under 37° C. incubator with humidified 5% CO2 atmosphere. Exchange half of the culture medium once or twice per week. The cultured spheroids (tumoroids) enables sustain in the culture platform of the invention for more than two weeks depends on the cell density and demand of the spheroid size.

Data set [2] concerns cancer of patient A. The data set can be described thus: Clinical treatment outcome of patient A. The data set is classed as in vivo, human. The settings on record: previous clinical treatment.

As to `COc1cccc2c1C(=O)c1c(O)c3c(c(O)c1C2=O)C[C@@](O)(C(=O)CO)C[C@@H]3O[C@H]1C[C@H](N)[C@H](O)[C@H](C)O1` [doxorubicin], in data set [1] (CTC spheroids of patient A under drug treatment), the spheroid viability entry is recorded as “lower than 4%”. Besides, the “diameter and morphology of CTC spheroid” value in data set [1] is given as “obvious broken morphology”.
Take `CC(=O)O[C@@]12CO[C@@H]1C[C@H](O)[C@@]1(C)C(=O)[C@H](O)C3=C(C)[C@@H](OC(=O)[C@H](O)[C@@H](NC(=O)OC(C)(C)C)c4ccccc4)C[C@@](O)([C@@H](OC(=O)c4ccccc4)[C@H]21)C3(C)C` [docetaxel]: in data set [2], the clinical treatment outcome is on record as “progression disease”.
Regarding `O=C1[O][Pt]2([NH][C@@H]3CCCC[C@H]3[NH]2)[O]C1=O` [oxaliplatin], in data set [2], the clinical treatment outcome is “progression disease”. In data set [1], the “diameter and morphology of CTC spheroid” value was “smaller than the mock group and became leakage in appearance”.
With `O=c1[nH]cc(F)c(=O)[nH]1` [5-FU, fluorouracil], the clinical treatment outcome in data set [2] was “progression disease”. Moreover, the “diameter and morphology of CTC spheroid” value in data set [1] is “smaller than the mock group and became leakage in appearance”.
